The text below walks through data of patent publication US20090220997A1, “Stimulating G Protein-Coupled Receptors” (MAYO FOUNDATION FOR MEDICAL EDUCATION AND RESEARCH, priority 2005, published 2009).

Bridge positions count the residues as written; N and C are the ends. Square brackets hold non-standard residues; d marks the D form. Ends that are not written are not given here. Dap = NC[C@H](N)C(=O)O

For one assay, the target named is T1, secretin receptor (Rattus norvegicus, UniProt P23811).
T1 construct: expressed in transfected cells; host or cells: CHO (CHO-SecR)
The assay is described as follows: cAMP accumulation in CHO cells expressing the secretin receptor (CHO-SecR). Format: cell-based. The note with it: for agonist activity (stimulation of cAMP accumulation): 30 min at 37° C.; for potency (cAMP accumulation), relative comparison: secretin receptor (SecR). The source says: (§1) FIG. 2 contains a series of graphs plotting accumulation of cAMP versus concentration of polypeptide used to stimulate cells. Presented in panel A are curves of cAMP accumulation in Chinese hamster ovary cells expressing the secretin receptor (CHO-SecR), and in the cells of the parental CHO cell line not expressing the secretin receptor, in response to increasing concentrations of secretin or a synthetic polypeptide (SEQ ID NO:1) corresponding to the region of the amino terminus of the secretin receptor between the first and third conserved cysteine residues, Cys^24 and Cys^53 (corresponding to residues 46 to 75 of GenBank Accession Number AAH81781). Presented in panel B are curves of cAMP accumulation in CHO-SecR cells in response to increasing concentrations of the indicated pentapeptide (SEQ ID NO:3), tripeptides, or dipeptides. Presented in panel C are curves of cAMP accumulation in CHO-SecR cells in response to increasing concentrations of a linear tripeptide, cyclic tripeptides, or a myristolated cyclic tripeptide. Adherent cells that were 75 percent confluent were stimulated with the polypeptide in Krebs-Ringers-HEPES medium for 30 min at 37° C. Cellular cAMP was quantified as previously reported (Holtmann et al., J. Biol. Chem. 270, 14394 (1995)). Values represent means±S.E.M. of data from a minimum of three independent assays performed in duplicate. Myr indicates myristoylated cyclic tripeptide.
It was determined whether a synthetic polypeptide corresponding to the region of the secretin receptor amino terminus between residues 24 and 53 (FIG. 1), which shares no homology with any part of the natural agonist polypeptide, could act as an endogenous agonist ligand. […] The cAMP response was dependent on the concentration of the polypeptide. […] The polypeptide had no effect on cAMP levels in the parental CHO cell line, even at concentrations as high as 100 μM (FIG. 2A).
(In general: cAMP levels reflect the balance of adenylyl cyclase and phosphodiesterase activity.)

A further assay concerns the target T2, calcitonin receptor (Homo sapiens, UniProt P30988).
T2 sequence (P30988 25-474): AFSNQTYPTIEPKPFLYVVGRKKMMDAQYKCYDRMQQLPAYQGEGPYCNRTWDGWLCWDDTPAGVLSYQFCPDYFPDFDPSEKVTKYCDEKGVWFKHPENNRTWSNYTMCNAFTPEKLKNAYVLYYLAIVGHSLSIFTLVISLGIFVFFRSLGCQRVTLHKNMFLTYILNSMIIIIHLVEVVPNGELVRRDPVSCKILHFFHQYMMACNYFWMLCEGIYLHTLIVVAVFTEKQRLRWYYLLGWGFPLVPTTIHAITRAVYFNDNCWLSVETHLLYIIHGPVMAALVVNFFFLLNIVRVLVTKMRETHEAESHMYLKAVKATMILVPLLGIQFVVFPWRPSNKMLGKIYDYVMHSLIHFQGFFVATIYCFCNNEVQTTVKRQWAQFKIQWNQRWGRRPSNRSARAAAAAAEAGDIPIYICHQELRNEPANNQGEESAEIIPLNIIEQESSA
The experiment in a line: cAMP accumulation in cells expressing the calcitonin receptor. The assay is classed as cell-based. The source says:
(§2) FIG. 4 contains a series of graphs plotting cAMP accumulation versus concentration of amino-terminal polypeptides from the calcitonin (residues 73-80; SEQ ID NO:6) and VPAC1 (residues 51-71; SEQ ID NO:4) receptors that were used to stimulate cells expressing Class B receptors.
(§3) Polypeptides representing the analogous region of the amino terminus of the Class B G protein-coupled calcitonin and VPAC1 receptors (FIG. 1) were also synthesized. […] The agonist activity of these endogenous polypeptides was not limited to the corresponding receptors. The polypeptides were also active at other structurally-related family members (FIG. 4).

A further assay deals with Class B receptors. The assay is described as follows: cAMP accumulation in cells expressing Class B receptors. The assay is classed as cell-based. Conditions: receptors other than the corresponding receptor.
From the text: as §2
(§4) FIG. 6 contains a series of graphs plotting cAMP accumulation versus concentration of the WDN tripeptide or amino-terminal polypeptides from the VPAC1 receptor (residues 51-71; SEQ ID NO:4), the calcitonin receptor (residues 73-80; SEQ ID NO:6), and the GLP1R (residues 63-70; SEQ ID NO:22) that were used to stimulate cells expressing Class B receptors as indicated.
as §3
(§5) Additional experiments were performed and curves were regenerated (FIG. 6), as described herein and as described elsewhere (Dong et al., Mol. Pharmacol., 70(1):206-13 (2006)). […] Each polypeptide used to generate the data presented in FIG. 6 was a cyclic polypeptide, except for the VPAC1(51-71) polypeptide. […]

The next assay addresses T3, VPAC1 receptor (Rattus norvegicus, UniProt P30083).
T3 sequence (P30083 31-459): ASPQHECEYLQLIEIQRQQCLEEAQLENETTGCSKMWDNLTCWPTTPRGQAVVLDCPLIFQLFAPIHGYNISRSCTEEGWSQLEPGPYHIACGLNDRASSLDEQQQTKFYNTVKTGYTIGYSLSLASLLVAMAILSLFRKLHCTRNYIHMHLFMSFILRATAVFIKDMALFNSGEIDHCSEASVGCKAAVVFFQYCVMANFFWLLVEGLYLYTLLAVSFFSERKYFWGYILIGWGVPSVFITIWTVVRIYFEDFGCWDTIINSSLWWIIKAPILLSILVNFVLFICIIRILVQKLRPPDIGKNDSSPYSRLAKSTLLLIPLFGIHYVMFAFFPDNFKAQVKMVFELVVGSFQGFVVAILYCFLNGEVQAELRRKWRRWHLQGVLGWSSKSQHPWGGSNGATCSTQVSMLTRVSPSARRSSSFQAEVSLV
The assay is described as follows: cAMP accumulation in cells expressing the VPAC1 receptor. Format: cell-based.
From the text: as §2, §4, §3, §5

The target in a further assay is human GLP1R (Homo sapiens, UniProt P43220). The experiment in a line: cAMP accumulation in cells expressing the GLP1R. Format: cell-based. The procedure:
as §4
Additional experiments were performed and curves were regenerated (FIG. 6), as described herein and as described elsewhere (Dong et al., Mol. Pharmacol., 70(1):206-13 (2006)). […] Each polypeptide used to generate the data presented in FIG. 6 was a cyclic polypeptide, except for the VPAC1(51-71) polypeptide. Linear versions of each polypeptide were also tested and found to behave in a similar manner as the corresponding cyclic polypeptides, with similar potencies and efficacies.

The test system of assay [1] is parental CHO cell line not expressing the secretin receptor. The experiment in a line: cAMP accumulation in parental CHO cell line. Format: cell-based, Chinese hamster. Conditions: concentrations as high as 100 μM.
From the text: as §1, with “Presented in panel C are curves of cAMP accumulation in CHO-SecR cells in response to increasing concentrations of a linear tripeptide, cyclic tripeptides, or a myristolated cyclic tripeptide. Adherent cells that were 75 percent confluent were stimulated with the polypeptide in Krebs-Ringers-HEPES medium for 30 min at 37° C.” left out, “Values represent means±S.E.M. of data from a minimum of three independent assays performed in duplicate. Myr indicates myristoylated cyclic tripeptide.” left out
It was determined whether a synthetic polypeptide corresponding to the region of the secretin receptor amino terminus between residues 24 and 53 (FIG. 1), which shares no homology with any part of the natural agonist polypeptide, could act as an endogenous agonist ligand. […]

The test system of assay [2] is Class A G protein-coupled cholecystokinin receptor. The experiment in a line: cAMP levels in CHO cell lines expressing cholecystokinin receptor. The assay is classed as cell-based. Conditions: CHO cell lines expressing high concentrations of cholecystokinin receptor.

T1 sequence (P23811 26-449): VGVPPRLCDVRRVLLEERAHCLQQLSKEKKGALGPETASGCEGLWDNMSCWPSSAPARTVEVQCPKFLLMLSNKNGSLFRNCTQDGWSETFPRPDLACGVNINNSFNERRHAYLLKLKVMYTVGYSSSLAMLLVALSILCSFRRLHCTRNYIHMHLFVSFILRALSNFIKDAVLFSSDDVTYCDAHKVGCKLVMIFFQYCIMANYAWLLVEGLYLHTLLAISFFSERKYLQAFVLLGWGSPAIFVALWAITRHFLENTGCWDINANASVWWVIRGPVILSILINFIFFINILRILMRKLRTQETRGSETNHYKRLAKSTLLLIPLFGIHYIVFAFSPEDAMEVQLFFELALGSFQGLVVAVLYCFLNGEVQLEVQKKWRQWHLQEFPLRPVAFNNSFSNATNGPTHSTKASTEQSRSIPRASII
Sequence of human GLP1R (P43220 24-463 L260F/A316G): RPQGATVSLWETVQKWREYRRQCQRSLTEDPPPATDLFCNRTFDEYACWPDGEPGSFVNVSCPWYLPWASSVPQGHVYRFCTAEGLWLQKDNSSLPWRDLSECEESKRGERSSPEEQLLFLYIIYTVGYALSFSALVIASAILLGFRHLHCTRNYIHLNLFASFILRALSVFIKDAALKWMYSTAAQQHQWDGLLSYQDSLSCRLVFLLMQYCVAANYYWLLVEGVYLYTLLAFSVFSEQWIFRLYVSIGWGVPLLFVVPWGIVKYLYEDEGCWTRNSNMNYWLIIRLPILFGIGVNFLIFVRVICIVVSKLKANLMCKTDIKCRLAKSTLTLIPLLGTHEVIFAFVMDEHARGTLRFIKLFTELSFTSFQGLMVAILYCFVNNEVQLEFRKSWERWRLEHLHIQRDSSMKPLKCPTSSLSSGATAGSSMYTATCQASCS

Regarding “tryptophan-aspartate-asparagine [linear tripeptide]”, the “agonist activity (stimulation of cAMP accumulation)” value at secretin receptor (CHO-SecR cells) was “stimulated cAMP accumulation”.

Consider “CTR(73-80): polypeptide corresponding to amino acids 73 to 80 of the human calcitonin receptor ([Dap]NRTWDGWLD; not fully specified (bridges); listed as Homo sapiens)”, for which, in the assay with calcitonin receptor, the “agonist activity (cAMP accumulation)” value was “low potency agonist activity”. Also, in the assay with Class B receptors, the “activity at other structurally-related family members” value was “also active”.

For the substance “myristoylated cyclic tripeptide: cyclic WDN polypeptide modified by fatty acid acylation (myristoyl group) ([Dap]WDND; lactam N-C; also: myristoyl group, site not given here)”, in the assay with secretin receptor, the “potency (cAMP accumulation), relative comparison” value is on record as “further enhanced”.

As to “GLP1R(63-70): polypeptide corresponding to amino acid residues 63 to 70 of the human GLP1R (NRTFDEYA; listed as Homo sapiens)”, in the assay with secretin receptor (CHO-SecR cells), the “agonist activity (stimulation of cAMP accumulation)” value is “active as an agonist”. Moreover, the “agonist activity (cAMP accumulation)” value with VPAC1 receptor and with human GLP1R was “active as an agonist” each time.

On to “cyclic WDN (tryptophan-aspartate-asparagine) tripeptide”, for which the “efficacy (cAMP accumulation)” value on secretin receptor (CHO-SecR cells) was “maintained full efficacy”. Also, at secretin receptor, the “potency (cAMP accumulation), relative comparison” value is “enhanced relative to that of the linear polypeptide”. For the same substance, at human GLP1R, the “agonist activity (cAMP accumulation)” value is on record as “active as agonists”.

In the case of “SecR(24-53): polypeptide corresponding to amino acids 46 to 75 of the rat secretin receptor (SEQ ID NO:1) ([Dap]CLQQLSKEKKGALGPETASGSEGLWDNMSCD; cysteine pairing not given here)”, the “agonist activity (stimulation of cAMP accumulation)” value with secretin receptor (CHO-SecR cells) is given as “weakly potent agonist”. Also, the entries for the “effect on cAMP levels” value in assay [1] and in assay [2] were “no effect” and “did not affect cAMP levels”, respectively.

With “leucine-tryptophan-aspartate-asparagine-methionine [LWDNM]”, the “agonist activity (stimulation of cAMP accumulation)” value at secretin receptor (CHO-SecR cells) is listed as “Agonist activity was maintained”.

Take “VPAC1(51-71): polypeptide corresponding to amino acids 51 to 71 of the rat VPAC1 receptor ([Dap]LEEAQLENETTGSSKMWDNLTD; not fully specified (bridges))”: the figures for the “agonist activity (cAMP accumulation)” value with VPAC1 receptor and in the assay with human GLP1R were “low potency agonist activity” and “active as agonists”, respectively. For the same substance, in the assay on Class B receptors, the “activity at other structurally-related family members” value is “also active”.
